Data reported in US10570179B2, “Substituted urea depsipeptide analogs as activators of the CLPP endopeptidase” (priority 2016, dated 2020).
Values after ≈ are worked out from the molar mass of the structure shown. Read-outs that look alike come from different tables or passages of the source. Numbered stars: 1 amine (or outer) side, 2 acyl side, 3 side chain; on linkers, the order of the positions; unused ones are H or OH. Bridge positions count the residues as written; N and C are the ends. Square brackets hold non-standard residues; d marks the D form. Peptide text beside a SMILES is read from it. * marks the point of attachment. Piperazine(2S-CO,4-Me) = CN1CCN[C@H](C(=O)O)C1; Phe(3,5-Me2) = Cc1cc(C)cc(C[C@H](N)C(=O)O)c1; Phe(3-Me) = Cc1cccc(C[C@H](N)C(=O)O)c1; NH(4-Cl-2-F-phenyl) = Fc1cc(Cl)ccc1N*; Pro(4R-Me) = C[C@H]1CN[C@H](C(=O)O)C1; Hyp = O=C(O)[C@@H]1C[C@@H](O)CN1; NH(4-Me-phenyl) = Cc1ccc(N*)cc1; aThr = C[C@H](O)[C@H](N)C(=O)O; Pip = O=C(O)[C@@H]1CCCCN1; CO = O=C([*:1])[*:2]

Legend:
S. aureus ΔClpP = assay: Minimal inhibitory concentration, microbroth dilution; assay type: cell-based, Staphylococcus aureus; conditions: MIC; ClpP inactivated
How it was run: (§1)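 Following CLSI M7-A7 microbroth dilution, twofold serial dilutions of compound (top final concentration 200 μM) were combined with an equal volume of broth inoculum at about 10^5 cfu/mL. Plates were incubated aerobically at 37 °C overnight, and the MIC was the lowest concentration preventing visible growth.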

[1] = Microsomal metabolic stability; assay type: in vitro ADME, mouse
How it was run: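 CD-1 mouse liver microsomes (0.6381 mg/mL protein microsomal solution, 0.1 M potassium phosphate pH 7.4 with EDTA) were incubated with compound and an NADPH-regenerating system at 37 °C, in triplicate. Acetonitrile/warfarin quench at 0, 15, 30, 60, 120 and 240 min, then LCMS. Half-life came from a first-order least-squares fit.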

Sa-ClpP = molecular target: T1, Sa-ClpP (Staphylococcus aureus, UniProt Q2G036); assay: ADEP displacement fluorescence polarization assay; assay type: binding, S. aureus; conditions: displacement of FP probe ADEP 2591 from Sa-ClpP
T1 construct: made in house; host or cells: E. coli BL21 (DE3)
T1 sequence (Q2G036 whole entry): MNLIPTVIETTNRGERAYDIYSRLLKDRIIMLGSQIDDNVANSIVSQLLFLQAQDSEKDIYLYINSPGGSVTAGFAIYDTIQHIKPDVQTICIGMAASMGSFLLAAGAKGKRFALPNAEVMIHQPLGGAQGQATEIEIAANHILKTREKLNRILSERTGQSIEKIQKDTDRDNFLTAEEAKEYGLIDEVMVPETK
Method: A fluorescence polarization (FP) assay was used to determine the activity of the disclosed compounds in displacing an ADEP analogue from ClpP. Briefly, the assay was performed in black 384 well, flat bottom, low volume plates (Greiner Bio-One, Monroe, N.C., catalog #784076). 20 μL of a pre-equilibrated (1 hr, room temperature) master mix (15 μM Sa-ClpP, 2% DMSO (v/v) and 50 nM FP probe in TrisHCl, pH 8.0)) was pipetted into each well using a Well-Mate (Thermo Scientific, Waltham, Mass.). Sa-ClpP was prepared as described above for the ClpP activation assay. The FP probe was ADEP 2591 (structure shown above). The ADEP 2591 comprises a TAMRA fluorophore linked to a core based on modified ADEP 2378 via a short alkyl linker. Using pin transfer, approximately 0.4 μL (2% v/v DMSO) of each compound or control was added per well. After addition of compounds and controls, plates were allowed to incubate for an additional 120 minutes at room temperature. All assays were performed in triplicate. Polarization was monitored using an EnVision Multilabel reader (Perkin-Elmer, Waltham, Mass.) by exciting the FP probe at 530±25 nm, and monitoring fluorescence intensity of both parallel and perpendicular polarized light at 579±25 nm. Readout was in millipolarization units (mP).
Signal gain and G factors were determined in wells containing 200 μM ADEP 2378, which had been previously verified (data not shown) as containing completely unbound ADEP 2591. Data collected was normalized to values obtained from positive (200 μM ADEP 2378) or negative (DMSO) controls. Curves were fit with non-linear regression using the equation “log [inhibitor] vs. Response-variable slope (four parameters)-symmetrical” in the program Prism 6 (GraphPad Software, La Jolla, Calif. USA, www.graphpad.com). The structures for ADEP 2378 and ADEP 2591 are shown above. ADEP 2378 is (E)-N—((S)-1-(((2R,6S,8aS,14aS,20S,23aS)-2,6-dimethyl-5,8,14,19,23-pentaoxooctadecahydro-1H,5H,14H,19H-pyrido[2,1-i]dipyrrolo[2,1-c:2′,1′-1][1]oxa[4,7,10,13]tetraazacyclohexadecin-20-yl)amino)-1-oxo-3-phenylpropan-2-yl)pent-2-enamide. ADEP 2591 is 5-(3-(3-((6S,9S,11aS,17S,20aS)-6,10-dimethyl-5,8,11,16,20-pentaoxo-17-((S)-2-((E)-pent-2-enamido)-3-phenylpropanamido)hexadecahydro-1H,5H,16H-dipyrrolo[2,1-c:2′,1′-1][1]oxa[4,7,10,13]tetraazacyclohexadecin-9-yl)propyl)thioureido)-2-(6-(dimethylamino)-3-(dimethyliminio)-3H-xanthen-9-yl)benzoate.

S. aureus ATCC 29213 = assay: Minimal inhibitory concentration, microbroth dilution; assay type: cell-based; conditions: Staphylococcus aureus
How it was run: as §1

S. aureus USA 300 = assay: as above; assay type: cell-based; conditions: Staphylococcus aureus
How it was run: as §1

E. faecails = assay: as above; assay type: cell-based; conditions: Enterococcus faecalis
How it was run: as §1

MRSA NRS70 = assay: as above; assay type: cell-based; conditions: Staphylococcus aureus
How it was run: as §1

[2] = ATCC29213, MIC, read-out: Minimal Inhibitory Concentrations (μM) S. aureus ATCC 29213
[3] = USA300, MIC, read-out: Minimal Inhibitory Concentrations (μM) S. aureus USA 300
[4] = MIC, read-out: Minimal Inhibitory Concentrations (μM) E. faecails
[5] = MIC, read-out: Minimal Inhibitory Concentrations (μM) MRSA NRS70

Structure (SMILES)	Minimal Inhibitory Concentrations (μM) S. aureus ΔClpP (S. aureus ΔClpP) [µM]	Mouse ([1]; CD-1, mouse, pH 7.4)	IC50 (Sa-ClpP) [µM]	MIC (S. aureus ATCC 29213; [2]) [µM]	MIC (S. aureus USA 300; [3]) [µM]	MIC (E. faecails; [4]) [µM]	MIC (MRSA NRS70; [5]) [µM]	Mouse ([1]; microsomal metabolic stability half-life, mouse liver microsomes) [h]	MIC (S. aureus ATCC 29213; ATCC29213, read-out: Minimal Inhibitory Concentrations (μM) S. aureus ATCC 29213, MIC) [µM]	MIC (S. aureus USA 300; USA300, read-out: Minimal Inhibitory Concentrations (μM) S. aureus USA 300, MIC) [µM]	MIC (E. faecails; read-out: Minimal Inhibitory Concentrations (μM) E. faecails, MIC) [µM]	MIC (MRSA NRS70; read-out: Minimal Inhibitory Concentrations (μM) MRSA NRS70, MIC) [µM]
Cc1cccc(C[C@H](NC(=O)Nc2ccc(Cl)cc2F)C(=O)N[C@H]2COC(=O)[C@@H]3C[C@@H](C)CN3C(=O)[C@H](C)NC(=O)[C@@H]3CCCCN3C(=O)[C@@H]3CCCN3C2=O)c1 [Compound 8, (S)-2-(3-(4-CHLORO-2-FLUOROPHENYL)UREIDO)-N-((2R,6S,8AS,14AS,20S,23AS)-2,6-DIMETHYL-5,8,14,19,23-PENTAOXOOCTADECAHYDRO-1H,5H,14H,19H-PYRIDO[2,1-I]DIPYRROLO[2,1-C:2′,1′-L][1]OXA[4,7,10,13]TETRAAZACYCLOHEXADECIN-20-YL)-3-(M-TOLYL)PROPANAMIDE]	>20	1.22 ± 0.13 h	3.51 ± 0.1	0.625 (≈ 0.506 µg/mL)	0.313 (≈ 0.254 µg/mL)	0.156 (≈ 0.126 µg/mL)	0.156 (≈ 0.126 µg/mL)					
Cc1cccc(C[C@H](NC(=O)Nc2ccc(Cl)cc2F)C(=O)N[C@H]2COC(=O)[C@@H]3C[C@@H](C)CN3C(=O)[C@H](C)NC(=O)[C@@H]3CN(C)CCN3C(=O)[C@@H]3CCCN3C2=O)c1 [Compound 13, (S)-2-(3-(4-CHLORO-2-FLUOROPHENYL)UREIDO)-3-(M-TOLYL)-N-((6AS,12S,15AS,17R,21S,23AS)-2,17,21-TRIMETHYL-6,11,15,20,23-PENTAOXOOCTADECAHYDRO-2H,6H,11H,15H-PYRAZINO[2,1-I]DIPYRROLO[2,1-C:2′,1′-L][1]OXA[4,7,10,13]TETRAAZACYCLOHEXADECIN-12-YL)PROPANAMIDE] ({NH(4-Cl-2-F-phenyl)-CO}-[Phe(3-Me)]SP[Piperazine(2S-CO,4-Me)]A[Pro(4R-Me)]; ester 2-C)	>20	0.49 ± 0.03 h	16.4 ± 0.8	1.25 (≈ 1.03 µg/mL)	2.5 (≈ 2.06 µg/mL)	0.625 (≈ 0.516 µg/mL)	1.25 (≈ 1.03 µg/mL)					
Cc1ccc(NC(=O)N[C@@H](Cc2cc(C)cc(C)c2)C(=O)N[C@@H]2C(=O)N3CCC[C@H]3C(=O)N3CCCC[C@H]3C(=O)N[C@@H](C)C(=O)N3C[C@H](C)C[C@H]3C(=O)O[C@H]2C)cc1 [Compound 2, (S)-3-(3,5-DIMETHYLPHENYL)-2-(3-(P-TOLYL)UREIDO)-N-((2R,6S,8AS,14AS,20S,21S,23AS)-2,6,21-TRIMETHYL-5,8,14,19,23-PENTAOXOOCTADECAHYDRO-1H,5H,14H,19H-PYRIDO[2,1-I]DIPYRROLO[2,1-C:2′,1′-L][1]OXA[4,7,10,13]TETRAAZACYCLOHEXADECIN-20-YL)PROPANAMIDE] ({NH(4-Me-phenyl)-CO}-[Phe(3,5-Me2)][aThr]P[Pip]A[Pro(4R-Me)]; ester 2-C)	200		8.82 ± 0.4					2.85	1.25 (≈ 1 µg/mL)	0.781 (≈ 0.625 µg/mL)	2.5 (≈ 2 µg/mL)	0.313 (≈ 0.25 µg/mL)
Cc1cccc(C[C@H](NC(=O)Nc2ccc(Cl)cc2F)C(=O)N[C@@H]2C(=O)N3C[C@H](O)C[C@H]3C(=O)N3CCN(C)C[C@H]3C(=O)N[C@@H](C)C(=O)N3C[C@H](C)C[C@H]3C(=O)O[C@H]2C)c1 [Compound 31, (S)-2-(3-(4-CHLORO-2-FLUOROPHENYL)UREIDO)-N-((6AS,8R,12S,13S,15AS,17R,21S,23AS)-8-HYDROXY-2,13,17,21-TETRAMETHYL-6,11,15,20,23-PENTAOXOOCTADECAHYDRO-2H,6H,11H,15H-PYRAZINO[2,1-I]DIPYRROLO[2,1-C:2′,1′-L][1]OXA[4,7,10,13]TETRAAZACYCLOHEXADECIN-12-YL)-3-(M-TOLYL)PROPANAMIDE] ({NH(4-Cl-2-F-phenyl)-CO}-[Phe(3-Me)][aThr][Hyp][Piperazine(2S-CO,4-Me)]A[Pro(4R-Me)]; ester 2-C)	>20	2.65 ± .655 h	3.07 ± 0.07	< 0.02	0.078 (≈ 0.0667 µg/mL)	< 0.02	< 0.02					
